Test results as given in patent US20050096323A1, “Diketopiperazine derivatives to inhibit thrombin” (NovoScience Pharma Inc., priority 1999, published 2005).
Where a name gives a salt, the structure may show the parent alone.

Columns and labels:
[1] = target: T1, thrombin (Homo sapiens, UniProt P00734); assay: Thrombin inhibition constant (Ki), fluorogenic substrate assay; assay type: biochemical; details: for Cycloargatroban vs. Argatroban, Ki(Thrombin): thrombin inhibition activity relative to argatroban
T1 construct: purchased Sigma

[2] = target: T2, trypsin (Bos taurus, UniProt P00760); assay: Trypsin inhibition constant (Ki), fluorogenic substrate assay; assay type: biochemical
T2 sequence (P00760 24-246): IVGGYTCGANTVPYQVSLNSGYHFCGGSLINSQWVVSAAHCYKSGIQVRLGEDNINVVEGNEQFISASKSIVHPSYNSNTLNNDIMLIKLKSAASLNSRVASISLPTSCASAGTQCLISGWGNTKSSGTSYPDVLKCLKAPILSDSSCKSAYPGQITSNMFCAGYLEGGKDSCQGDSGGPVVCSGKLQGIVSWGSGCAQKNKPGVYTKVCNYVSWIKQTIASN
Protocol: (§1) The activity and selectivity of the present invention can be identified by determination of the inhibition constant (Ki) for serine proteases such thrombin and trypsin and fibrinolytic enzymes such as urokinase, plasmin and tissue plasminogen activator (tPA). All of enzymes are purchased from Sigma. The general assay conditions are as follows. The fluorogenic substrates are dissolved in DMSO and diluted using assay buffer containing 50 mM Tris.HCl (pH 7.8 at 25° C.), 0.1 M NaCl and 0.1% polyethylene glycol 8000 (PEG 8000). […] The assays were conducted using Hitachi F2500 spectrophotometer under ambient temperature and at the excitation and emission wavelengths of 383 nm and 455 nm, respectively. The typical progressive data of the enzymatic assays are shown in FIGS. 1-3, and the determination of inhibition constant (Ki) is shown in FIG. 4.

[3] = target: T3, urokinase (Homo sapiens, UniProt P00749); assay: Urokinase inhibition constant (Ki), fluorogenic substrate assay; assay type: biochemical
T3 construct: purchased Sigma
Protocol: as §1

[4] = target: T4, plasmin (Homo sapiens, UniProt P00747); assay: Plasmin inhibition constant (Ki), fluorogenic substrate assay; assay type: biochemical
T4 construct: purchased Sigma
T4 sequence (P00747 581-810 limits assumed, species assumed): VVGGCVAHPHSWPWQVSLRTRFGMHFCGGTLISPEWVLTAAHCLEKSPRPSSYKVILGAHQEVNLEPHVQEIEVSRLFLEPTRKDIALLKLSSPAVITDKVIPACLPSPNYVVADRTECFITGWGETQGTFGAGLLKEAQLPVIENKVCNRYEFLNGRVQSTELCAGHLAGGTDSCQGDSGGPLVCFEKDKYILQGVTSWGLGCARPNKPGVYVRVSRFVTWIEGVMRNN
T4 sequence (P00747 97-580 partner limits assumed, species assumed): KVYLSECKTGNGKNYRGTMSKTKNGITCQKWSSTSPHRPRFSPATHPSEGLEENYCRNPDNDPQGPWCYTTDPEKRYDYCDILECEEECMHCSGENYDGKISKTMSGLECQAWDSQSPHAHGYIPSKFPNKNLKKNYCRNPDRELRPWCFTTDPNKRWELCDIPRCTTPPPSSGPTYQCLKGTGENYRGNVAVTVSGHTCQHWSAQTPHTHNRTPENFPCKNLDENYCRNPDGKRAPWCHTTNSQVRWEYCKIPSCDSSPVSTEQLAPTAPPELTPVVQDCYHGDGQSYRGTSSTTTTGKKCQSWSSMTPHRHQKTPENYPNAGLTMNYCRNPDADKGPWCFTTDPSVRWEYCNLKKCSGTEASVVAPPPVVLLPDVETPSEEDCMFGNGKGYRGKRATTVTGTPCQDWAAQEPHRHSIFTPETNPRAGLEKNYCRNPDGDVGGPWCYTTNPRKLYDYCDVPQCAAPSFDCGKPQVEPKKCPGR
Protocol: as §1

[5] = target: T5, tissue plasminogen activator (tPA) (Homo sapiens, UniProt P00750); assay: tPA inhibition constant (Ki), fluorogenic substrate assay; assay type: biochemical
T5 construct: purchased Sigma
T5 sequence (P00750 36-562, species assumed): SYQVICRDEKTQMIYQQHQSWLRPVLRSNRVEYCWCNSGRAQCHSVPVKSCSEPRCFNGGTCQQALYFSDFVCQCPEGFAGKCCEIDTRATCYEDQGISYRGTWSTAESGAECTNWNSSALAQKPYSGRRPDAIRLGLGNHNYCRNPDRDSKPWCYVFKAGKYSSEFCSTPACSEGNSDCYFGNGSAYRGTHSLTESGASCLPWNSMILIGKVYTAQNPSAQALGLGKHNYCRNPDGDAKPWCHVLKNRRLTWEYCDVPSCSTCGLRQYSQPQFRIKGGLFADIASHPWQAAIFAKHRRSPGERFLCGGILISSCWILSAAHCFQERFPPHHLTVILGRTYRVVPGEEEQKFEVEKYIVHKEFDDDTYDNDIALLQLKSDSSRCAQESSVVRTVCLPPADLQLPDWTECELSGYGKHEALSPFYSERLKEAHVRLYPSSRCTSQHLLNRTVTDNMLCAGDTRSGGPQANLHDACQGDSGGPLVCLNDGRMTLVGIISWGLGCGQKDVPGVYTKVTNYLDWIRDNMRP
Protocol: as §1

[6] = tested on: pooled normal human plasma; assay: Ex vivo coagulation assay (APTT prolongation); assay type: biochemical; details: normal citrated human plasma
Protocol: Frozen-pooled human plasma was obtained from Sigma. Measurement of APTT was made using the ELECTRA™ 800 automated coagulometer (Medical Laboratory Automation Inc.) using the automated APTT reagent (SIGMA) as the initiator of clotting according to the manufacture's instructions. The assay was conducted by making a series of dilution of the reference and test compounds in rapidly thawed plasma (compound: plasma=0.1 ml:0.9 ml) followed by adding the mixed solution to the wells of the assay carousel. Tris buffers (pH 7.8 at 25° C.) were used through the entire assay.

[7] = Acute toxicity, intravenous injection, determination of LD50; assay type: in vivo, mice; details: both sexes, ICR, mouse, in vivo, iv, ICR mice, single i.v., Bliss method
From the text: 1) Determination of LD50 (Tables III and IV): ICR mice, 18 ˜20 g, were divided into five groups, with 10 animals in each group (half male and half female). The ratio of doses between groups was 1:0.85.

[8] = tested on: ICR mice; assay: Acute toxicity, oral gavage, determination of the maximal dose; assay type: in vivo
From the text: The dose is based on maximal dissolution rate and maximal administered volume of the drug.

[9] = tested on: ICR mice; assay: Clotting time (CT) of mice whole blood after administration; assay type: in vivo
Protocol: Blood samples were collected using the capillary method 0.5 h and 1.5 h after i.v. injections and 1 h and 3 h after i.g. and clotting time of whole blood was measured.

[10] = tested on: SD rats; assay: Acute myocardial infarction by coronary artery ligation in rats; assay type: in vivo, rat; details: for CK (u/ml) / LDH (u/ml): serum;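 on CK (u/ml): blood collected at end of 6 h (i.v.) or 8 h (intraduodenal) ECG observation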;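 on LDH (u/ml): blood collected at end of 6 h (i.v.) or 8 h (intraduodenal) ECG observation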
Protocol: The drugs were administered 8 to 10 min after the coronary artery was ligated.

[11] = 0.125 mg/kg i.v., 0 min after ligation (before drug)
[12] = 0.125 mg/kg i.v., 10 min after ligation
[13] = 0.125 mg/kg i.v., 30 min after ligation
[14] = 0.125 mg/kg i.v., 6 h after ligation
[15] = 0.25 mg/kg i.v., 0 min after ligation (before drug)
[16] = 0.25 mg/kg i.v., 10 min after ligation
[17] = 0.25 mg/kg i.v., 30 min after ligation
[18] = 0.25 mg/kg i.v., 6 h after ligation
[19] = 75 mg/kg intraduodenum, 0 min after ligation (before drug)
[20] = 75 mg/kg intraduodenum, 10 min after ligation
[21] = 75 mg/kg intraduodenum, 30 min after ligation
[22] = 75 mg/kg intraduodenum, 6 h after ligation

Compound: CC1CNc2c(cccc2S(=O)(=O)N2C(=O)C3CC(C)CCN3C(=O)C2CCCNC(=N)N)C1 [NPI1999, (3S,6R,8R)-Bicyclo[4.4.0]-1,4-diaza-3-(3-guanidinopropyl)-4-N-(1,2,3,4-tetrahydro-3-methyl-8-quinolinesulfonyl)-8-methyl-2,5-decanedione, hydrochoride salt]
- Ki ([1]; Table II, method of example 9): 0.02 to 0.04 µM
- Ki ([1]; substrate Tos-Gly-Pro-Arg-AMC, pH 7.8): 0.04 µM
- Cycloargatroban vs. Argatroban, Ki(Thrombin) ([1]; listed as Cycloargatroban): −2.1 fold
- Cycloargatroban vs. Argatroban, Ki(Thrombin) ([1]; listed as cycloargatroban): 2.1 fold
- Cycloargatroban [Ki (Enzyme)/Ki (Thrombin)] vs. Argatroban [Ki (Enzyme)/Ki (Thrombin)] ([2]; listed as Cycloargatroban): +12 fold
- Cycloargatroban [Ki (Enzyme)/Ki (Thrombin)] vs. Argatroban [Ki (Enzyme)/Ki (Thrombin)] ([2]; listed as cycloargatroban): 12 fold
- Cycloargatroban [Ki (Enzyme)/Ki (Thrombin)] vs. Argatroban [Ki (Enzyme)/Ki (Thrombin)] ([3]; enzyme = urokinase): −0.14 fold
- Ki ([3]; substrate N-Cbz-Gly-Gly-Arg-AMC): 295 µM
- Cycloargatroban [Ki (Enzyme)/Ki (Thrombin)] vs. Argatroban [Ki (Enzyme)/Ki (Thrombin)] ([4]; enzyme = plasmin): −0.67 fold
- Ki ([4]; substrate D-Ala-Leu-Lys-AMC): 528 µM
- Cycloargatroban [Ki (Enzyme)/Ki (Thrombin)] vs. Argatroban [Ki (Enzyme)/Ki (Thrombin)] ([5]; enzyme = tPA): +1.2 fold
- Ki ([5]; substrate Boc-L-(p-F) FPR-ANSNH-C2H5): 2020 µM
- effect on APTT compared with argatroban [6]: less strong effect
- effect on activated partial thromboplastin time (APTT) ([6]; FIG. 5): prolonged the APTT in a dose dependent manner
- 95% confidence interval of LD50 at 2 weeks [7]: 10 to 11.9 mg/kg
- LD50 at 2 weeks ([7]; observed 2 weeks): 10.9 mg/kg
- Maximal dose of oral gavage ([8]; ICR mice, i.g.): 2860 mg/kg
- maximal dose of i.g. ([8]; ICR mice, i.g.): 2.86 g/kg/day
- mortality ([8]; i.g. 1.43 g/kg twice, up to one week): No mortality was observed
- CT (clotting time of whole blood) ([9]; 0.25 mg/kg i.v. group, before administration): 128.53 ± 27.14
- CT (clotting time of whole blood) ([9]; 0.25 mg/kg i.v., 0.5 h): 140.02 ± 26.40
- CT (clotting time of whole blood) ([9]; 0.25 mg/kg i.v., 1.5 h): 139.88 ± 30.40
- CT (clotting time of whole blood) ([9]; 0.5 mg/kg i.v. group, before administration): 125.53 ± 25.03
- CT (clotting time of whole blood) ([9]; 0.5 mg/kg i.v., 0.5 h): 172.88 ± 34.26
- CT (clotting time of whole blood) ([9]; 0.5 mg/kg i.v., 1.5 h): 161.76 ± 40.10
- CT (clotting time of whole blood) ([9]; 1 mg/kg i.v. group, before administration): 124.06 ± 28.96
- CT (clotting time of whole blood) ([9]; 1 mg/kg i.v., 0.5 h): 165.12 ± 30.57
- CT (clotting time of whole blood) ([9]; 1 mg/kg i.v., 1.5 h): 163.62 ± 44.26
- CT (clotting time of whole blood) ([9]; 75 mg/kg i.g. group, before administration): 126.11 ± 22.83
- CT (clotting time of whole blood) ([9]; 75 mg/kg i.g., 1 h): 133.11 ± 29.00
- CT (clotting time of whole blood) ([9]; 75 mg/kg i.g., 3.0 h): 119.39 ± 25.88
- CT (clotting time of whole blood) ([9]; 150 mg/kg i.g. group, before administration): 125.50 ± 23.67
- CT (clotting time of whole blood) ([9]; 150 mg/kg i.g., 1 h): 128.06 ± 30.03
- CT (clotting time of whole blood) ([9]; 150 mg/kg i.g., 3.0 h): 119.44 ± 26.01
- clotting time compared to controls ([9]; i.g. 75 mg/kg and 150 mg/kg, 1 h and 3 h): No significant difference
- clotting time compared to controls ([9]; i.v. 0.5 mg/kg and 1 mg/kg, 0.5 h and 1.5 h): significantly prolonged
- Infarction Area (%) ([10]; 0.125 mg/kg i.v.): 26.40 ± 7.42 %
- S point in electrocardiogram [10, 11]: 0.33 ± 0.12
- T wave in electrocardiogram [10, 11]: 0.19 ± 0.15
- S point in electrocardiogram [10, 12]: 0.34 ± 0.19
- T wave in electrocardiogram [10, 12]: 0.17 ± 0.18
- S point in electrocardiogram [10, 13]: 0.27 ± 0.21
- T wave in electrocardiogram [10, 13]: 0.18 ± 0.23
- S point in electrocardiogram [10, 14]: 0.08 ± 0.14
- T wave in electrocardiogram [10, 14]: 0.02 ± 0.16
- Infarction Area (%) ([10]; 0.25 mg/kg i.v.): 25.66 ± 7.32 %
- S point in electrocardiogram [10, 15]: 0.33 ± 0.17
- T wave in electrocardiogram [10, 15]: 0.19 ± 0.11
- S point in electrocardiogram [10, 16]: 0.42 ± 0.20
- T wave in electrocardiogram [10, 16]: 0.27 ± 0.13
- S point in electrocardiogram [10, 17]: 0.34 ± 0.22
- T wave in electrocardiogram [10, 17]: 0.26 ± 0.17
- S point in electrocardiogram [10, 18]: 0.24 ± 0.18
- T wave in electrocardiogram [10, 18]: 0.15 ± 0.11
- Infarction Area (%) ([10]; 75 mg/kg intraduodenum): 30.98 ± 7.41%
- S point in electrocardiogram [10, 19]: 0.26 ± 0.13
- T wave in electrocardiogram [10, 19]: 0.12 ± 0.11
- S point in electrocardiogram [10, 20]: 0.28 ± 0.07
- T wave in electrocardiogram [10, 20]: 0.15 ± 0.09
- S point in electrocardiogram [10, 21]: 0.28 ± 0.10
- T wave in electrocardiogram [10, 21]: 0.18 ± 0.11
- S point in electrocardiogram [10, 22]: 0.18 ± 0.22
- T wave in electrocardiogram [10, 22]: 0.13 ± 0.11
- infarction area and serum LDH and CK ([10]; i.v. 0.25 mg/kg and 0.125 mg/kg): significantly reduced
- infarction area and serum LDH and CK ([10]; intra-duodenum 75 mg/kg): no significant effects
- CK (u/ml) ([10]; 0.125 mg/kg i.v.): 52.75 ± 16.25 u/ml
- LDH (u/ml) ([10]; 0.125 mg/kg i.v.): 6254.1 ± 220.1 u/ml
- CK (u/ml) ([10]; 0.25 mg/kg i.v.): 56.52 ± 14.48 u/ml
- LDH (u/ml) ([10]; 0.25 mg/kg i.v.): 6125.7 ± 385.5 u/ml
- CK (u/ml) ([10]; 75 mg/kg intraduodenum): 53.90 ± 20.60 u/ml
- LDH (u/ml) ([10]; 75 mg/kg intraduodenum): 6393.3 ± 308.7 u/ml
